The record followed here is ChEMBL document CHEMBL3585341, “-Heteroarylalkylcarbamates as inhibitors of fatty acid amide hydrolase (FAAH)” (Medchemcomm, 2014).

Activity calls are given as the source filed them. The calls are words filed in the database; no cut-off is given here.

By inhibition is commonly meant the change of the read-out against control, counted positive when it falls. One may read the IC50 as the point on the concentration scale where inhibition reaches its midpoint.

For one data set, the species on record is Sus scrofa. Put plainly: Inhibition of porcine platelet cPLA2alpha using co-vesicles consisting 1-stearoyl-2-arachidonoyl-sn-glycero-3-phosphocholine and 1,2-dioleoyl-sn-glycerol as substrate assessed as arachidonic acid release at 10 uM after 60 mins by reverse phase HPLC with UV-detection method.
The target in data set [1] is T1, Fatty-acid amide hydrolase 1 (Rattus norvegicus, UniProt P97612).
T1 sequence (P97612 whole entry): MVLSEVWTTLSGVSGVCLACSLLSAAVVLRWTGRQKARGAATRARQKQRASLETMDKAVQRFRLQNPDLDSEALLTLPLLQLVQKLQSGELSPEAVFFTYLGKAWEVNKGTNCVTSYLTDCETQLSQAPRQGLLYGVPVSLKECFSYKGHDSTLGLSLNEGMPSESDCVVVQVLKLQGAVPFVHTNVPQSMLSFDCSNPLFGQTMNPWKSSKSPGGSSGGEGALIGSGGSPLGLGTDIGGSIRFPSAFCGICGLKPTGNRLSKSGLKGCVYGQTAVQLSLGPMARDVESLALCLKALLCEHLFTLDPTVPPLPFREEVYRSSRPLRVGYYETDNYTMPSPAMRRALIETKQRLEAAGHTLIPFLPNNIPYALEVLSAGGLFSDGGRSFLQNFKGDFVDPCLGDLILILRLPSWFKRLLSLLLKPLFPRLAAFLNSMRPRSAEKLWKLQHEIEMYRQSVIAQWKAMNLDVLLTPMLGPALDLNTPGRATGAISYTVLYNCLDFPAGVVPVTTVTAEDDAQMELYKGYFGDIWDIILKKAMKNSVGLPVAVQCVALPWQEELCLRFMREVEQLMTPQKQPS
The data set is described as follows: Inhibition of Sprague-Dawley rat brain microsomal FAAH using N-(2-hydroxyethyl)-4-pyren-1-ylbutanamide as substrate assessed as 4-pyren-1-ylbutanoic acid release preincubated for 10 mins with substrate followed by protein addition measured after 60 mins by reverse phase HPLC with fluorescence detection method.

Data set [2] is described as follows: Metabolic stability in porcine plasma assessed as remaining compound at […] after 30 mins by reverse phase HPLC with UV-detection method. The class given is ADME, cell-free, Sus scrofa. The conditions noted are these: pig, read-out: Stability.
Data set [3] is described as follows: Metabolic stability in rat liver S9 fractions assessed as remaining compound after 30 mins by reverse phase HPLC with UV-detection method in presence of NADPH. In kind it is ADME, subcellular, Liver S9 fraction. The conditions noted are these: read-out: Stability.
Data set [4] has as its target T2, Monoglyceride lipase (Homo sapiens) (UniProt Q99685).
T2 sequence (whole entry): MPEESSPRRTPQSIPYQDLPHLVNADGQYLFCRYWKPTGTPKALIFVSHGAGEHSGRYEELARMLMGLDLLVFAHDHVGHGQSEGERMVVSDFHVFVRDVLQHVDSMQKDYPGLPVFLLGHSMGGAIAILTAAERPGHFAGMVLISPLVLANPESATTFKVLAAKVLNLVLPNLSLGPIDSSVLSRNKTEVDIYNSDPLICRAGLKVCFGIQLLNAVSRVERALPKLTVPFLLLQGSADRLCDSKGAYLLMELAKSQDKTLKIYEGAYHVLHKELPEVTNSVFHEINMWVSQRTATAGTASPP
Put plainly: Inhibition of human recombinant MAGL using […] 4-pyren-1-yl butanoate as substrate at 10 uM preincubated for 15 mins with substrate followed by protein addition measured after 45 mins by reverse phase HPLC with fluorescence detection method.

The target in data set [5] is T3, Fatty-acid amide hydrolase 1 (Rattus norvegicus) (UniProt P97612).
T3 sequence (whole entry): T1 sequence (P97612 whole entry)
Put plainly: Inhibition of Sprague-Dawley rat brain microsomal FAAH using N-(2-hydroxyethyl)-4-pyren-1-ylbutanamide as substrate assessed as 4-pyren-1-ylbutanoic acid release at 10 uM preincubated for 10 mins with substrate followed by protein addition measured after 60 mins by reverse phase HPLC with fluorescence detection method.

For `O=C(NCCCCCCn1ccc2ccccc21)Oc1cccnc1`, the inhibition result in the data set filed under Sus scrofa was “inactive”. The half-maximal inhibitory concentration (IC50) in data set [1] was determined as 5.2 nM. Besides, the remaining at 0.5 h stood at 0% in data set [2] and 47% in data set [3].
As for `O=C(NCCCCn1ccc2ccccc21)Oc1ccccc1`, the inhibition result (in the data set listed under Sus scrofa; in data set [4]) was “inactive” throughout. The IC50 in data set [1] came out at 960 nM.
As to `Cc1nc(-c2ccccc2)c(-c2ccccc2)n1CCCCCCNC(=O)Oc1ccccc1`, the 50% inhibitory concentration (IC50) in data set [1] was 350 nM.
Turning to `O=C(NCCCCCCn1ccc2ccccc21)Oc1ccccc1`, the inhibition entry (in the data set filed under Sus scrofa; in data set [4]) was “inactive” throughout. Moreover, the IC50 in data set [1] amounted to 250 nM.
For the compound `Cc1cc(-c2ccccc2)c(-c2ccccc2)n1CCCCCCNC(=O)Oc1ccccc1`, the IC50 in data set [1] is 2600 nM.
As for `O=C(NCCCCCCn1cnc2ccccc21)Oc1ccccc1`, the IC50 in data set [1] was found to be 290 nM.
For `O=C(NCCCCCn1ccc2ccccc21)Oc1cccnc1`, the inhibition result in the data set filed under Sus scrofa is “inactive”. In addition, the IC50 in data set [1] came to 3.6 nM. In addition, the remaining at 0.5 h was found to be 0% in data set [2] and 43% in data set [3].
Consider `O=C(NCCCCCCCCn1ccc2ccccc21)Oc1ccccc1`, for which the inhibition result (in the data set listed under Sus scrofa; in data set [4]) was “inactive” in each case. Besides, the IC50 in data set [1] came to 240 nM.
For the compound `O=C(NCCCCCCn1cc(-c2ccccc2)c2ccccc21)Oc1ccccc1`, the IC50 in data set [1] is 4900 nM.
Regarding `O=C(NCCCCCn1ccc2ccccc21)Oc1ccccc1`, the inhibition entry (in the data set filed under Sus scrofa; in data set [4]) was “inactive” throughout. Also, the IC50 in data set [1] is 94 nM.
With `O=C(NCCCCCCn1c(-c2ccccc2)c(-c2ccccc2)c2ccccc21)Oc1ccccc1`, the IC50 in data set [1] amounted to 4700 nM.
For `O=C(NCCCCCCCn1ccc2ccccc21)Oc1ccccc1`, the inhibition entry (in the data set listed under Sus scrofa; in data set [4]) was “inactive” throughout. Also, in data set [1], the IC50 was found to be 90 nM.
With `Cc1cc(-c2ccccc2)c(-c2ccccc2)n1CCCCNC(=O)Oc1ccccc1`, the IC50 in data set [1] came to 6200 nM.
Still for that read-out and setting: in the case of `Cc1ccc(-c2ccccc2)n1CCCCCCNC(=O)Oc1ccccc1` it was 310 nM.
With `Cc1cc(-c2ccccc2)c(-c2ccccc2)n1CCNC(=O)Oc1ccccc1`, in data set [5], the inhibition entry is “inactive”.
In the case of `COC(=O)c1c(-c2ccccc2)c(-c2ccccc2)n(CCCCCCNC(=O)Oc2ccccc2)c1C`, the IC50 in data set [1] was above 10000 nM. For the same compound, the inhibition in data set [5] was determined as 21%.
Regarding `Cc1c(C#N)c(-c2ccccc2)c(-c2ccccc2)n1CCCCCCNC(=O)Oc1ccccc1`, the IC50 in data set [1] was determined as 8700 nM.
Still for that read-out and setting: then `O=C(NCCCCCCn1nnc2ccccc21)Oc1ccccc1`, with 810 nM; and `O=C(NCCCCCCn1c(-c2ccccc2)cc2ccccc21)Oc1ccccc1`, with 520 nM.
Consider `NC(=O)c1cccc(-c2cccc(OC(=O)NC3CCCCC3)c2)c1` [URB-597], for which the inhibition result in the data set filed under Sus scrofa is “inactive”. The remaining at 0.5 h in data set [2] came to 76%; in data set [3], 13%.
Take `Cc1c(-c2ccccc2)cc(-c2ccccc2)n1CCCCCCNC(=O)Oc1ccccc1`: the IC50 in data set [1] was 460 nM.
Take `O=C(NCCCCCCn1ncc2ccccc21)Oc1ccccc1`: in data set [1], the IC50 was determined as 920 nM.
Turning to `CC(=O)c1c(-c2ccccc2)c(-c2ccccc2)n(CCCCCCNC(=O)Oc2ccccc2)c1C`, in data set [1], the 50% inhibitory concentration (IC50) was above 10000 nM. Besides, the inhibition in data set [5] was found to be 33%.
